Molecular target: T1, Human CaV2.2 channels (Homo sapiens, UniProt Q00975)
T1 construct: expressed in transfected cells; also stably expressing Kir2.3)
Assay: Fluorescence assay for CaV2.2 channels using potassium depolarization to induce channel opening (FLIPR, Fluo 4)
Assay type: cell-based
Settings: 30 mM KCl assay buffer (inactivated channel state), HEK293 cells; for inhibition at 3 µM: HEK293, 3 μM test compound, read-out: Activity Category: %-Inhib (CaV2.2) @3 μM @30 mM KCl; for Activity Category: %-Inhib (CaV2.2) @3 μM @30 mM KCl: 3 μM test compound
Description: In the process, the Ca^2+ influx is quantified in the FLIPR assay with the aid of a Ca^2+-sensitive dye (type Fluo-4, Molecular Probes Europe BV, Leiden, the Netherlands) in a fluorescent imaging plate reader (FLIPR 3, Molecular Devices, Sunnyvale, USA), as described hereinafter.
[drawing 69] 2. Assay Descriptions and Biological Data: 2.1 Fluorescence Assay for CaV2.2 Channels Using Potassium Depolarization to Induce Channel Opening
Human CaV2.2 channels were stably expressed in HEK293 cells together with alpha2-delta and beta subunits of voltage gated calcium channels. In addition, an inwardly rectifying potassium channel (Kir2.3) was stably expressed in these cells to augment control of the cell membrane potential by the concentration of extracellular potassium ions. Raise of the extracellular potassium concentration leads to depolarization of the membrane potential and thus regulates the voltage dependent state of CaV2.2 channels. For preparation, cells were seeded in black poly-D-lysine coated 96-well plates (Becton Dickinson, Biocoat 4640) in 100 μL medium [500 mL DMEM/F-12 plus Glutamax (Invitrogen 31331-093) plus 5.5 mL MEM NEAA 100× (Invitrogen 11140-035) plus 50 mL FBS decomplemented (Invitrogen 10270-106) plus 200 μg/mL Geneticin (Invitrogen 10131-027) plus 50 μg/mL Hygromycin B (Invitrogen 10687-010) plus 2 μg/mL Blasticidin (anti-b15b Invivo-Gen) plus 0.2 μg/mL Puromycin (A 11138-03)] at a cell density of 30.000 cells per well. Plates were incubated at 37° C. (5% CO2) for 20 to 23 h. On the day of experiment medium was discarded and cells were loaded with Fluo 4 by addition of 100 μL of basic assay buffer (10 mM HEPES, 1 mM KCl, 149 mM NaCl, 0.8 mM CaCl2, 1.7 mM MgCl2, 10 mM Glucose, 0.1% BSA. pH 7.4) containing 2 μM Fluo 4 (Molecular Probes; F-14201), 0.01% pluronic acid (Molecular Probes; P-6866) and 2.5 mM probenecid (Molecular Probes; P36400). Cells were incubated in the dark at 25° C. for 60 min. Then dye containing buffer was discarded and 100 μL basic (1 mM KCl) or alternative (30 mM KCl) assay buffer was added. The alternative assay buffer contained altered concentrations of KCl (30 mM) and NaCl (120 mM) and was used in order to promote the inactivated channel state. After that 25 μL of basic or alternative assay buffer with or without test compound were added and cells were incubated again in the dark at 25° C. for 15 min. Fluorescence intensity was measured on a FLIPR 3 instrument (Molecular Devices Corp., Sunnyvale, Calif.) with excitation at 480 nm and emission at 535 nm. After continuously reading fluorescence for 30 sec, 50 μL of basic assay buffer containing 210 mM KCl(NaCl omitted) were added for depolarization. Peak fluorescent signal intensity was determined and the amplitude of the peak signal, normalized to base line, was used to measure channel inhibition by test compounds.

T1 sequence (Q00975 whole entry): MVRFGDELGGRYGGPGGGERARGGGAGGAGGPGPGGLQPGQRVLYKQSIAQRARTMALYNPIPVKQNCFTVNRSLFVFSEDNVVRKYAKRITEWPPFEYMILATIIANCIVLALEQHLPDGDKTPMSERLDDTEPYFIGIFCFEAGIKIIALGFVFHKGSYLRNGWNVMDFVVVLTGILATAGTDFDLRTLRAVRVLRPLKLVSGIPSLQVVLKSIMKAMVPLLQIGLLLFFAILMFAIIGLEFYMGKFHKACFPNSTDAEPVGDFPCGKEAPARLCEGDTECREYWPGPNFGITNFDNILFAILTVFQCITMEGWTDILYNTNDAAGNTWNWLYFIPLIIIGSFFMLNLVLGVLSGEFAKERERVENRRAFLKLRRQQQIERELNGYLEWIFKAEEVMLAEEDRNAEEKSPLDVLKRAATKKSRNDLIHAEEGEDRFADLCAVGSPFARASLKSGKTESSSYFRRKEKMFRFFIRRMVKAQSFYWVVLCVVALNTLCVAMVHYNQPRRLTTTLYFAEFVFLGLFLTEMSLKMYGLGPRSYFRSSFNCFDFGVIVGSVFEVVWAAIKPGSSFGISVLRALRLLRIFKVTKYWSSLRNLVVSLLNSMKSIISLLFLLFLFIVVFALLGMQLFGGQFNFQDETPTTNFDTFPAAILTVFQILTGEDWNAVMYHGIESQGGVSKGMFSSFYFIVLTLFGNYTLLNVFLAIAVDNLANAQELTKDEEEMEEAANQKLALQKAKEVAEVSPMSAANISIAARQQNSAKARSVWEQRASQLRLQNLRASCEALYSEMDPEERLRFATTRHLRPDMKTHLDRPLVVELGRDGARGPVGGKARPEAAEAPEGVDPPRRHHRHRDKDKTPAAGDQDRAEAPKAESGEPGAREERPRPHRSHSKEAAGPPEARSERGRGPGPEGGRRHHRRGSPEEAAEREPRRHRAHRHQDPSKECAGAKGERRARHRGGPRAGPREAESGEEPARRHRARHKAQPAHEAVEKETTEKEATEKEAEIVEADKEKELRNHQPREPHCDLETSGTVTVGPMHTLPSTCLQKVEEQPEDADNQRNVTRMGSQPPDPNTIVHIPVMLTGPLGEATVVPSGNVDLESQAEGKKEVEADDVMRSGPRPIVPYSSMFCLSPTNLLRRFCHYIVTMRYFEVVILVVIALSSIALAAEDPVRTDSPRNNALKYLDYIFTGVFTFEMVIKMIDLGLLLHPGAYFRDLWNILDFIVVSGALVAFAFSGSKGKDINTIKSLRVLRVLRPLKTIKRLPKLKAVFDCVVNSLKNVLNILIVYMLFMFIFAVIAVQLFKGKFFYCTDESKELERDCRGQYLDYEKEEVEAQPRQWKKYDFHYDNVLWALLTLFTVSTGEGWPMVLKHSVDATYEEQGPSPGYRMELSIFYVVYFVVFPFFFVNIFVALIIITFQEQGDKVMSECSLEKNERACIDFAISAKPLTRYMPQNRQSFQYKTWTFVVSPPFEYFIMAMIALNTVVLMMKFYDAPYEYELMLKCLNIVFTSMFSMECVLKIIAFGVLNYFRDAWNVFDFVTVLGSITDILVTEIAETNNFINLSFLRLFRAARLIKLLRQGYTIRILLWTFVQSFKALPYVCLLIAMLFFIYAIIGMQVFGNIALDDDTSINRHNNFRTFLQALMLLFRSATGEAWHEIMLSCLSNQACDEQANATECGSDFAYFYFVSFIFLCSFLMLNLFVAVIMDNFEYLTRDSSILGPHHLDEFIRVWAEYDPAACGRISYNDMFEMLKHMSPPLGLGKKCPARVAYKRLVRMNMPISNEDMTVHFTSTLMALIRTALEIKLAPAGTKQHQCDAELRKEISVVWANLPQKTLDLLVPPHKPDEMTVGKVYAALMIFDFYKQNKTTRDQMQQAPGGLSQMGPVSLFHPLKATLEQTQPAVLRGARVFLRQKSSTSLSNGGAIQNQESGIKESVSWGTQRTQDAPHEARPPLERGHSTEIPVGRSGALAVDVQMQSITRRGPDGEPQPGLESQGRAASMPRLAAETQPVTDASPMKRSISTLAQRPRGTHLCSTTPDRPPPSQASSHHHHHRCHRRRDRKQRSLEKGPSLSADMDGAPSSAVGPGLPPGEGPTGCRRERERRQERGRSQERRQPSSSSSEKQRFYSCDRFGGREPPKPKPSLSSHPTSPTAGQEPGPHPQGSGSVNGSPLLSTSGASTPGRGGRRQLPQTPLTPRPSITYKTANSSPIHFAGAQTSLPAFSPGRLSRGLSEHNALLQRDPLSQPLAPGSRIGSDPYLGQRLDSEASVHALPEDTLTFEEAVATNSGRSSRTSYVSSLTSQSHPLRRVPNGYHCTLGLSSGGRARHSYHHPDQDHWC

Row | Structure (SMILES) | inhibition at 3 µM [%] | further results
1 | CC1(S(=O)(=O)c2cccc(C(F)(F)F)c2)CCOC(c2cc(CC(F)(F)F)n[nH]2)C1 (racemic) [Example 15 cis-rac, 5-[4-Methyl-4-[[3-(trifluoromethyl)phenyl]sulfonyl]-tetrahydro-pyran-2-yl]-3-(2,2,2-trifluoro-ethyl)-1H-pyrazole] | > 95 | –
2 | C[C@@]1(S(=O)(=O)c2cccc(C(F)(F)F)c2)CCO[C@@H](c2cc(S(=O)(=O)C(F)F)n[nH]2)C1 (racemic) [[trans-rac] Example 1, 3-(Difluoro-methylsulfonyl)-5-[4-methyl-4-[[3-(trifluoromethyl)phenyl]sulfonyl]-tetrahydro-pyran-2-yl]-1H-pyrazole] | 75 to 95 | –
3 | CC1(S(=O)(=O)c2cccc(C(F)(F)F)c2)CCOC(c2cc(C(F)F)[nH]n2)C1 (racemic) [[trans-rac] Example 12, 5-(Difluoro-methyl)-3-[4-methyl-4-[[3-(trifluoromethyl)phenyl]sulfonyl]-tetrahydro-pyran-2-yl]-1H-pyrazole] | 75 to 95 | –
4 | CC1(S(=O)(=O)c2cccc(C(F)(F)F)c2)CCOC(c2cc(S(=O)(=O)CC(F)F)n[nH]2)C1 (stereo not drawn) [Example 3 cis-EN1, 3-(2,2-Difluoro-ethylsulfonyl)-5-[4-methyl-4-[[3-(trifluoromethyl)phenyl]sulfonyl]-tetrahydro-pyran-2-yl]-1H-pyrazole] | 30 to 40 | –
5 | CC1(S(=O)(=O)c2cccc(C(F)(F)F)c2)CCOC(c2cc(S(=O)(=O)C3COC3)n[nH]2)C1 (stereo not drawn) [Example 4 cis-EN1, 5-[4-Methyl-4-[[3-(trifluoromethyl)phenyl]sulfonyl]-tetrahydro-pyran-2-yl]-3-(oxetan-3-ylsulfonyl)-1H-pyrazole] | – | Activity Category: %-Inhib (CaV2.2) @3 μM @30 mM KCl (listed as 4 cis-EN1): C (%-Inhibition >40% up to ≤75%)
6 | CC1(S(=O)(=O)c2cccc(C(F)(F)F)c2)CCOC(c2cc(S(=O)(=O)C3COC3)n[nH]2)C1 (stereo not drawn) [Example 4 cis-EN2, 5-[4-Methyl-4-[[3-(trifluoromethyl)phenyl]sulfonyl]-tetrahydro-pyran-2-yl]-3-(oxetan-3-ylsulfonyl)-1H-pyrazole] | – | Activity Category: %-Inhib (CaV2.2) @3 μM @30 mM KCl (listed as 4 cis-EN2): B (%-Inhibition >75% up to ≤95%)
7 | COCCS(=O)(=O)c1cc(C2CC(C)(S(=O)(=O)c3cccc(C(F)(F)F)c3)CCO2)[nH]n1 (stereo not drawn) [Example 5 cis-EN1, 3-(2-Methoxy-ethylsulfonyl)-5-[4-methyl-4-[[3-(trifluoromethyl)phenyl]sulfonyl]-tetrahydro-pyran-2-yl]-1H-pyrazole] | – | Activity Category: %-Inhib (CaV2.2) @3 μM @30 mM KCl (listed as 5 cis-EN1): B (%-Inhibition >75% up to ≤95%)
8 | COCCS(=O)(=O)c1cc(C2CC(C)(S(=O)(=O)c3cccc(C(F)(F)F)c3)CCO2)[nH]n1 (stereo not drawn) [Example 5 cis-EN2, 3-(2-Methoxy-ethylsulfonyl)-5-[4-methyl-4-[[3-(trifluoromethyl)phenyl]sulfonyl]-tetrahydro-pyran-2-yl]-1H-pyrazole] | – | Activity Category: %-Inhib (CaV2.2) @3 μM @30 mM KCl (listed as 5 cis-EN2): C (%-Inhibition >40% up to ≤75%)
9 | CC(C)(c1cc(C2CC(C)(S(=O)(=O)c3cccc(C(F)(F)F)c3)CCO2)[nH]n1)S(C)(=O)=O (stereo not drawn) [Example 7 cis-EN1, 3-(1-Methyl-1-methylsulfonyl-ethyl)-5-[4-methyl-4-[[3-(trifluoromethyl)phenyl]sulfonyl]-tetrahydro-pyran-2-yl]-1H-pyrazole] | 75 to 95 | –
10 | CC1(S(=O)(=O)c2cccc(C(F)(F)F)c2)CCOC(c2cc(CCS(C)(=O)=O)n[nH]2)C1 (stereo not drawn) [Example 9 cis-EN1, 3-(2-Methylsulfonyl-ethyl)-5-[4-methyl-4-[[3-(trifluoromethyl)phenyl]sulfonyl]-tetrahydro-pyran-2-yl]-1H-pyrazole] | 40 to 75 | –
11 | CC(F)(F)c1cc(C2CC(C)(S(=O)(=O)c3cccc(C(F)(F)F)c3)CCO2)[nH]n1 (stereo not drawn) [Example 13 cis-EN1, 3-(1,1-Difluoro-ethyl)-5-[4-methyl-4-[[3-(trifluoromethyl)phenyl]sulfonyl]-tetrahydro-pyran-2-yl]-1H-pyrazole] | > 95 | –
12 | CC1(S(=O)(=O)c2cccc(C(F)(F)F)c2)CCOC(c2cc(CC(F)F)n[nH]2)C1 (stereo not drawn) [Example 14 cis-EN1, 3-(2,2-Difluoro-ethyl)-5-[4-methyl-4-[[3-(trifluoromethyl)phenyl]sulfonyl]-tetrahydro-pyran-2-yl]-1H-pyrazole] | 75 to 95 | –
13 | CC1(S(=O)(=O)c2cccc(C(F)(F)F)c2)CCOC(c2cc(CC(F)F)n[nH]2)C1 (stereo not drawn) [Example 14 cis-EN2, 3-(2,2-Difluoro-ethyl)-5-[4-methyl-4-[[3-(trifluoromethyl)phenyl]sulfonyl]-tetrahydro-pyran-2-yl]-1H-pyrazole] | – | Activity Category: %-Inhib (CaV2.2) @3 μM @30 mM KCl: A (%-Inhibition >95%)
14 | CC1(S(=O)(=O)c2cccc(C(F)(F)F)c2)CCOC(c2cc(OCC(F)(F)F)n[nH]2)C1 (stereo not drawn) [Example 16 cis-EN2, 5-[4-Methyl-4-[[3-(trifluoromethyl)phenyl]sulfonyl]-tetrahydro-pyran-2-yl]-3-(2,2,2-trifluoro-ethoxy)-1H-pyrazole] | > 95 | –
15 | CC1(S(=O)(=O)c2cccc(C(F)(F)F)c2)CCOC(c2cc(C3(O)COC3)n[nH]2)C1 (stereo not drawn) [Example 18 cis-EN1, 3-[5-[4-Methyl-4-[[3-(trifluoromethyl)phenyl]sulfonyl]-tetrahydro-pyran-2-yl]-1H-pyrazol-3-yl]-oxetan-3-ol] | 40 to 75 | –
16 | CC(C)(O)c1cc(C2CC(C)(S(=O)(=O)c3cccc(C(F)(F)F)c3)CCO2)[nH]n1 (stereo not drawn) [Example 19 cis-EN1, 2-[5-[4-Methyl-4-[[3-(trifluoromethyl)phenyl]sulfonyl]-tetrahydro-pyran-2-yl]-1H-pyrazol-3-yl]-propan-2-ol] | – | Activity Category: %-Inhib (CaV2.2) @3 μM @30 mM KCl (listed as 19 cis-EN1): B (%-Inhibition >75% up to ≤95%)
17 | CC(C)(O)c1cc(C2CC(C)(S(=O)(=O)c3cccc(C(F)(F)F)c3)CCO2)[nH]n1 (stereo not drawn) [Example 19 cis-EN2, 2-[5-[4-Methyl-4-[[3-(trifluoromethyl)phenyl]sulfonyl]-tetrahydro-pyran-2-yl]-1H-pyrazol-3-yl]-propan-2-ol] | – | Activity Category: %-Inhib (CaV2.2) @3 μM @30 mM KCl (listed as 19 cis-EN2): C (%-Inhibition >40% up to ≤75%)
18 | CC1(S(=O)(=O)c2cccc(C(F)(F)F)c2)CCOC(c2cc(S(=O)(=O)C(F)(F)F)n[nH]2)C1 (stereo not drawn) [Example 27 cis-EN1, 3-(Trifluoro-methylsulfonyl)-5-[4-methyl-4-[[3-(trifluoromethyl)phenyl]sulfonyl]-tetrahydro-pyran-2-yl]-1H-pyrazole] | > 95 | –
19 | CC1(S(=O)(=O)c2cccc(C(F)(F)F)c2)CCOC(c2cc(S(=O)(=O)C(F)(F)F)n[nH]2)C1 (stereo not drawn) [Example 27 cis-EN2, 3-(Trifluoro-methylsulfonyl)-5-[4-methyl-4-[[3-(trifluoromethyl)phenyl]sulfonyl]-tetrahydro-pyran-2-yl]-1H-pyrazole] | – | Activity Category: %-Inhib (CaV2.2) @3 μM @30 mM KCl: B (%-Inhibition >75% up to ≤95%)
20 | CC1(S(=O)(=O)c2cccc(C(F)(F)F)c2)CCOC(c2cc(CS(=O)(=O)C(F)F)n[nH]2)C1 (stereo not drawn) [Example 28 cis-EN1, 3-[(Difluoro-methylsulfonyl)-methyl]-5-[4-methyl-4-[[3-(trifluoromethyl)phenyl]sulfonyl]-tetrahydro-pyran-2-yl]-1H-pyrazole] | 75 to 95 | –
21 | CC1(S(=O)(=O)c2cccc(C(F)(F)F)c2)CCOC(c2cc(S(=O)(=O)CC(F)(F)F)n[nH]2)C1 (stereo not drawn) [Example 29 cis-EN1, 5-[4-Methyl-4-[[3-(trifluoromethyl)phenyl]sulfonyl]-tetrahydro-pyran-2-yl]-3-(2,2,2-trifluoro-ethylsulfonyl)-1H-pyrazole] | 75 to 95 | –
